Experimental data taken from US20210254087A1, “METHODS FOR ENHANCING GENOME ENGINEERING EFFICIENCY” (KWS SAAT SE & CO. KGaA, priority 2018, published 2021).

Legend:
Assay type in all cases: cell-based
[1] = tested on: corn Hi II immature embryos; experiment: Co-delivery of 2,4-D with mNeonGreen construct pGEP362 by microprojectile bombardment, transient transformation; conditions: 250 ng 2,4-D, 100 μg gold particles, 16 hours after bombardment, vs no 2,4-D
Procedure: Embryo isolation and microprojectile bombardment and post-bombardment handlings were performed using the same procedure as described in Example 1.
The amounts of 2,4-D used for a bombardment with 100 μg of gold particles (approximately, 4.0-5.0×10^7 0.6 μm gold particles) are in range of 1.0 ng to 1000 ng, preferred 10 ng to 500 ng. Plasmid DNA and 2,4-D co-coating onto gold particles for bombardment were conducted as described in Example 1. 2,4-D stock solution (e.g. 1 mg/ml) is prepared in 100% DMSO.

[2] = tested on: corn Hi II type II callus; experiment: as above; conditions: 125 ng, 250 ng, 500 ng 2,4-D vs 0 ng; 16 hours after bombardment
Procedure: Type II callus culture and microprojectile bombardment and post-bombardment handlings were performed using the same procedure as described in Example 2.
The amounts of 2,4-D used for a bombardment with 100 μg of gold particles (approximately, 4.0-5.0×10^7 0.6 μm gold particles) are in range of 1.0 ng to 1000 ng, preferred 10 ng to 500 ng. Plasmid DNA and 2,4-D co-coating onto gold particles for bombardment were conducted as described in Example 6.

leaves of corn plants = experiment: Co-delivery of 2,4-D with tdTomato construct pGEP359 by microprojectile bombardment, transient transformation; conditions: 250 ng 2,4-D, 20 hours after bombardment, vs without 2,4-D
Procedure: Corn plants have grown in greenhouse. In stage V8 microprojectile bombardment was conducted using a Bio-Rad PDS-1000/He particle gun. The bombardment conditions are: 27-28 mm/Hg vacuum, 450 or 650 psi rupture disc, 6 mm gap distance. 20 hours after bombardment, transient transformation was examined using a fluorescence microscope for the tdTomato gene expression at excitation maximum 554 nm and emission maximum 581 nm. Plasmid DNA and 2,4-D co-coating onto gold particles for bombardment were conducted as described in Example 1. 2,4-D stock solution (e.g. 25 mg/ml in DMSO).

[3] = tested on: corn Hi II type II calluses; experiment: Co-delivery of 6-BA or zeatin with tdTomato construct pGEP359 by microprojectile bombardment, transient transformation; conditions: 250 ng hormone, 100 μg gold particles, 16 hours after bombardment, vs no hormone
Procedure: The amounts of 6-BA or zeatin used for a bombardment with 100 μg of gold particles (approximately, 4.0-5.0×10^7 0.6 μm gold particles) are in range of 1.0 ng to 10000 ng, preferred 10 ng to 1000 ng.

[4] = tested on: corn Hi II immature embryos; experiment: Co-delivery of TSA with tdTomato construct pLH-Pat5077399-70Subi-tDt by microprojectile bombardment, transient transformation
Procedure: Procedure: Prepare corn immature embryo for bombardment: 8-10 days post pollination, maize ears (i.e. A188 or Hi II) with immature embryos size 0.8 to 1.8 mm were harvested. The ears were sterilized with 70% ethanol for 10-15 minutes. After a brief air-dry in a laminar hood, remove top ˜⅓ of the kernels from the ears with a shark scalpel, and pull the immature embryos out of the kernels carefully with a spatula. The fresh isolated embryos were placed onto the bombardment target area in an osmotic medium plate (see below) with scutellum-side up. Wrap the plates with parafilm and incubated them at 25° C. in dark for 4-20 hours before bombardment.
The amounts of TSA used for a bombardment with 100 μg of gold particles (approximately, 4.0-5.0×10^7 0.6 micron gold particles) are in range of 0.01 ng to 500 ng, preferred 0.1 to 50 ng. Plasmid DNA and TSA co-coating onto gold particles for bombardment: For 10 shots, 1 mg of gold particle size 0.6 micron (μm) in 50% (v/v) glycerol (100 μg gold particles per shot) in a total volume of 100 microliter (μl) was pipetted into a clear low-retention microcentrifuge tube. Sonicate for 15 seconds to suspend the gold particles. While vortex at a low speed, add the following in order to each 100 μl of gold particles: • Up to 10 μl of DNA (1.0 μg total DNA, 100 ng per shot) • 100 μl of 2.5 M CaCl2) (pre-cold on ice) • 40 μl of 0.1 M cold spermidine
Close the lid and vortex the tube for 2-30 minutes at 0-10° C., and spin down the DNA-coated gold particles. After washing in 500 μl of 100% ethanol for two times, the pellet was resuspended in 120 μl of 100% ethanol. […]
Bombardment was conducted using a Bio-Rad PDS-1000/He particle gun. […] 16-48 hours after bombardment, transient transformation was examined using a fluorescence microscope for the tdTomato gene expression at excitation maximum 554 nm and emission maximum 581 nm. […]

[5] = tested on: corn Hi II type II calluses; experiment: Co-delivery of TSA with tdTomato construct pGEP359 by microprojectile bombardment, transient transformation; conditions: 15 ng TSA, 100 μg gold particles, 16 hours after bombardment, vs no TSA
Procedure: Type II callus induction and selection: Hi II immature embryos size 0.8-1.8 mm were isolated as described in Example 1, and were placed onto type II callus induction medium (see below) immediately with scutellum-side up, in a density of 10-15 embryo per plate (diameter of 100 mm). Wrap the plates with parafilm, and culture the embryos in plate at 27° C. in the dark until type II callus emerged (˜2 weeks). Pick friable type II calluses under a stereoscope, and move them onto type II callus selection medium (see below). Repeat this process for 2-3 more times, and trash the embryos 4 weeks after induction. Select pre-embryo stage of type II callus under a stereoscope carefully based on: friability (highly friable), morphology (no embryo-like structure), color (fresh, white, semi-transparent). Select and subculture type II callus every 1-2 week in callus selection medium (see below) until the callus lines stabilized (about 3-5 rounds of selection). Stable type II callus lines were cultured in type II callus subculture medium (see below) every 1 to 2 weeks.
Preparation of type II callus for bombardment: Select and transfer highly friable type II callus at pre-embryo stage onto the bombardment target region in an osmotic medium plate (see Example 1) (single layer, no overlapping). […]

[6] = tested on: sugar beet friable calluses; experiment: Co-delivery of TSA with pLH-Pat5077399-70Subi-tDt by microprojectile bombardment, transient transformation; conditions: 15 ng TSA, 300 μg gold particles, 24 hours after bombardment, vs no TSA
Procedure: Sugar beet callus induction: young leaves from in vitro cultured sugar beet shoots in shoot culture medium (see below) were cut into small pieces (square, size 3-5 mm) in a laminar hood, and placed them onto callus induction medium (see below), in a density of 10-15 pieces per plate (diameter of 100 mm) with adaxial-side up. Wrap the plates with parafilm, and culture the leaf segments in plate at 23° C. in the dark for 6-8 weeks until callus emerged.
Preparation of sugar beet callus for bombardment: harvest friable fresh calluses under a stereoscope, and transfer them onto the bombardment target area in a sugar beet osmatic medium (see below) (single layer, no overlapping). Wrap the plates with parafilm and incubated at 25° C. in dark for 4-20 hours before bombardment.
Microprojectile bombardment and post-bombardment handlings were conducted using the same procedure descripted in Example 1, except for the amount of gold particles used for a bombardment was 300 μg.
Sugar beet shoot culture medium: MS, 0.25 mg/L of BAP, 30 g/L of sucrose, 8 g/I plant agar, pH 6.0
Sugar beet callus induction medium: MS, 2.0 mg/L of BAP, 15 g/L of sucrose, 8 g/I plant agar, pH 6.0
Sugar beet callus osmatic medium: MS, 2.0 mg/L of BAP, 15 g/L of sucrose, 0.2 M Mannitol (36.4 g/L), 0.2 M sorbitol (36.4 g/L), 8 g/I plant agar, pH 6.0

[7] = tested on: corn Hi II immature embryos; experiment: Co-delivery of TSA with gene editing construct pGEP284, site-specific InDel rate by NGS
Procedure: Embryo isolation, microprojectile bombardment and post-bombardment handlings were performed using the same procedure as described in Example 1. Two days after bombardment, the embryos were harvested and used for genomic DNA isolation use Plant DNA Isolation kit from Qiagen (Venlo, Netherlands). NGS (next generation sequencing) was conducted by Miseq platform of Illumina Inc. (San Diego, Calif., USA). InDel (insertion and deletion) rate was analyzed by means of CRISPResso (http://crispresso.rocks/).

[8] = tested on: corn Hi II type II calluses; experiment: Co-delivery of TSA with gene editing constructs pGEP359 and pGEP353, site-specific InDel rate by NGS; conditions: 15 ng TSA vs no TSA, 13 days after co-bombardment
Procedure: Type II callus culture and microprojectile bombardment and post-bombardment handlings were performed using the same procedure as described in Example 2. 2-15 days after bombardment, the calluses were harvested and used for genomic DNA isolation with a Plant DNA Isolation kit from Qiagen. NGS (next generation sequencing) was conducted by Illumina Miseq platform. InDel (insertion and deletion) rate was analyzed by means of CRISPResso.

Structure (SMILES): O=C(O)COc1ccc(Cl)cc1Cl [2,4-D, 2,4-Dichlorophenoxyacetic acid]
- increase in average number of green fluorescent cells per embryo [1]: 187%
- increase of average number of green fluorescent cells per field [2]: at least 34.8%
- effect on transient transformation in corn leaves (leaves of corn plants): improved the transient transformation

Structure (SMILES): c1ccc(CNc2ncnc3nc[nH]c23)cc1 [6-BA, 6-Benzylaminopurine]
- increase in average number of red fluorescent cells per field [3]: 35.8%

Structure (SMILES): CC(/C=C/C(=O)NO)=C\[C@@H](C)C(=O)c1ccc(N(C)C)cc1 [TSA, trichostatin A]
- increase of average number of red fluorescent cells (positively transient transformed cells) per embryo ([4]; 15 ng TSA, 100 μg gold particles 0.6 μm, 16 hours after bombardment, vs no TSA): 98.2%
- effect of lower and higher TSA amounts on transient transformed cells ([4]; 15 ng and 45 ng TSA vs no TSA, 16 hours): significant increase of transient transformed cells
- TSA amount giving optimum of average number of fluorescent cells per field ([4]; no TSA, 15, 30, 45 ng TSA tested, 16 hours): around 30 ng
- increase of average number of fluorescent cells per field [5]: 43.3%
- increase of average number of fluorescent cells per field [6]: 193.7%
- effect of lower and higher TSA amounts on InDel rates ([7]; 15 ng and 45 ng TSA compared to absence of TSA, 2 days): significant increase of InDel rates
- TSA amount giving optimum of rates of InDel events ([7]; no TSA, 15, 30, 45 ng TSA tested, 2 days after bombardment, pGEP284): around 30 ng
- increase of site-specific InDel rate, factor [8]: 6.75
- increase of site-specific InDel rate, percent [8]: 575%

Structure (SMILES): C/C(=C\CNc1ncnc2[nH]cnc12)CO [zeatin, Zeatin]
- increase in average number of red fluorescent cells per field [3]: 31.2%
